Laboratory results taken from US12257227B2, “Combination solution for treating chemotherapy refractory cancer” (1GLOBE BIOMEDICAL CO., LTD., priority 2018, dated 2025).

Assays:
STAT3 pathway = conditions: according to WO2009/036059; read-out: STAT3 pathway activity, cellular IC50; cited from earlier work
[1] = test system: human pancreatic adenocarcinoma (Panc-1); assay: Xenograft tumor mouse model, tumor size during treatment; format: in vivo, mice; conditions: FIG. 4; 2-acetylnaphtho[2,3-b]furan-4,9-dione 100 mg/kg PO bid; gemcitabine 80 mg/kg IV q3d; mean of five tumors
Experimental: The effects of 2-acetylnaphtho[2,3-b]furan-4,9-dione, the compound of formula (I), gemcitabine, and a combination of 2-acetylnaphtho[2,3-b]furan-4,9-dione and gemcitabine were studied. Specifically, immunosuppressed mice with established human pancreatic adenocarcinoma (Panc-1) were treated with vehicle control, 2-acetylnaphtho[2,3-b]furan-4,9-dione (100 mg/kg, PO, bid), gemcitabine (Gemzar, 80 mg/kg, IV, q3d), or the combination of 2-acetylnaphtho[2,3-b]furan-4,9-dione and gemcitabine. Tumor size was evaluated periodically during treatment. Each point represents the mean±SEM of five tumors.

[2] = test system: advanced pancreatic cancer; assay: Phase II/III open label clinical study in patients who failed previous treatments (RECIST 1.1); format: in vivo, human; conditions: all patients receiving treatment
Text: In a phase II/III extended open label international multicenter experiment, search the effect of the compound of formula (I), 2-acetylnaphtho[2,3-b]furan-4,9-dioen combined with paclitaxel and a low dose of gemcitabine on patients with advanced pancreatic cancer who have failed previous treatments.
In the clinical study, we observed the anti-tumor activity and safety of 2-acetylnaphtho[2,3-b]furan-4,9-dione combined with paclitaxel weekly and a low dose of gemcitabine in patients with advanced pancreatic cancer who failed previous treatment. There are imaging disease progressions in patients who have received at least first-line systemic treatment in the past and failed. Previous treatments include gemcitabine-based single-agent or combination chemotherapy, and/or FOLFIRINOX/mFOLFIRINOX chemotherapy. […]
The remission and progression of the tumor were evaluated according to the RECIST 1.1 standard. […]

p-STAT3 and β-catenin = assay: Immunofluorescence of cancer stem cell markers in xenograft tumors; format: in vivo, mice; conditions: FIG. 5; tumors collected 24 hours after first dose; e.g. 50 mg/kg BID oral gavage
Experimental: Detection of the effects of 2-acetylnaphtho[2,3-b]furan-4,9-dione with or without paclitaxel on cancer stem cells for cancer stem cell markers in cancer xenograft animal models.
Human cancer cells were implanted subcutaneously into the right abdomen of 5 to 7 weeks athymic nude mice. When the tumor size reaches 200 mm^3, administer 2-acetylnaphtho[2,3-b]furan-4,9-dione (for example, 50 mg/kg (BID) by oral gavage (n=3/group)), paclitaxel, or 2-acetylnaphtho[2,3-b]furan-4,9-dione combined with paclitaxel to treat animals. Tumors were collected 24 hours after the first dose.
The harvested tissues were fixed in 3.7% neutral buffered formaldehyde at 4° C. overnight. Paraffin embedding were performed. Cut those into approximately 5 microns and fix them on positively charged glass slides. After baking and deparaffinization, the slides with tumor or control tissue were incubated in 10 mM sodium citrate (pH 6.0) for 10 minutes. After antigen retrieval, use primary antibody P-STAT3 (Rabbit, Cell Signaling, 1:100), β-catenin (Mouse, Santa Cruz, 1:400) to label slides overnight at 4° C., and then use Alexa Fluor Fluorescent dye-conjugated secondary antibody (1:500, Invitrogen). After mounting, the glass slides containing DAPI (Invitrogen) with Prolong mounting medium were detected under the 20× objective lens of a Zeiss fluorescence microscope, and analyzed with Zen software.

SMILES	IC50 (STAT3 pathway)	tumor growth (tumor volume) [1]	adverse events related to the compound [2]	expression (staining) of stem cell markers p-STAT3 and β-catenin (p-STAT3 and β-catenin)
CC(=O)c1cc2c(o1)C(=O)c1ccccc1C2=O [2-acetylnaphtho[2,3-b]furan-4,9-dione]	~250 nM	showed certain effects in inhibiting tumor growth	mainly gastrointestinal adverse events	significantly reduce the expression of stem cell markers p-STAT3 and β-catenin
Nc1ccn([C@@H]2O[C@H](CO)[C@@H](O)C2(F)F)c(=O)n1 [gemcitabine, reference compound]	–	showed certain effects in inhibiting tumor growth	–	–
CC(=O)O[C@H]1C(=O)[C@@]2(C)[C@H]([C@H](OC(=O)c3ccccc3)[C@]3(O)C[C@H](OC(=O)[C@H](O)[C@@H](NC(=O)c4ccccc4)c4ccccc4)C(C)=C1C3(C)C)[C@]1(OC(C)=O)CO[C@@H]1C[C@@H]2O [paclitaxel, reference compound]	–	–	–	increased staining of stem cell markers
